The record followed here is US20040072990A1, “Antimicrobial peptides with reduced hemolysis and methods of their use” (priority 2002, published 2004).

≈ marks a conversion by molar mass, not a printed value. Residues, ends and D or L forms follow the SMILES beside them.

In one data set the test system is human red blood cells. In words: Erythrocyte lysis (hemolysis). The data set is classed as cell-based. Here is the method: Pac 521-530 were tested for hemolysis against human red blood cells (RBC). The RBCs with EDTA were rinsed 3 times with PBS (800 g, 10 min) and resuspended in PBS. The RBCs were diluted into 10% with phosphate-buffered saline and placed 50 μl into each eppendorf. The peptides that dissolved in PBS were then added to 50 μl of 10% solution of RBCs and incubated for an hour at 37° C. (final RBC concentration, 5% v/v). The samples were centrifuged at 800 g for 10 min […]. Various concentrations of peptides were incubated with pretreated RBC and the percentage of hemolysis determined. […]

The test system of a further data set is B. pumilus. Nature of the data set: MIC test (NCCLS broth microdilution). The data set is classed as cell-based, Bacillus pumilus. Here is the method:
(§1) Generally, the in vitro antimicrobial activities of antimicrobial agents were tested using standard NCCLS bacterial inhibition assays, or minimum inhibition concentration (MIC) tests. The MIC value is the lowest concentration of peptide at which the visible growth of test organisms is inhibited and reduced.
(§2) Briefly, overnight cultures of the test organisms were diluted to produce an inoculum containing approximately 10^5 colonies in Meuller-Hinton broth (MHB). From the peptide stock solution, serial two-dilutions of the peptides in 50 μl volume was prepared in a 96-well microtiter plate, and all wells were subsequently inoculated with the diluted culture of the test organisms. After 18 hours of incubation at 37° C., the results were assayed for turbidity (cell growth). MIC values were performed three times on different occasions (FIG. 2), and the median values are shown.

In a further data set the test system is P. aeruginosa. In words: MIC test (NCCLS broth microdilution). The data set is classed as cell-based, Pseudomonas aeruginosa. Here is the method: as §1, §2
(Broth dilution looks for growth in wells or tubes with falling amounts of substance.)

The next data set has as its system E. coli. In words: MIC test (NCCLS broth microdilution). The data set is classed as cell-based. How it is done:
(§3) The MIC value is the lowest concentration of peptide at which the visible growth of test organisms is inhibited and reduced.
as §2

Another data set deals with B. cereus. Nature of the data set: MIC test (NCCLS broth microdilution). The data set is classed as cell-based, Bacillus cereus. How it is done:
as §1, §2

Another data set has as its system S. aureus. Nature of the data set: MIC test (NCCLS broth microdilution). The data set is classed as cell-based, Staphylococcus aureus. How it is done: as §3, §2
In a further data set the test system is S. epidermidis. In words: MIC test (NCCLS broth microdilution). The data set is classed as cell-based, Staphylococcus epidermidis. Here is the method:
as §1, §2

A further data set deals with B. substiis. Nature of the data set: MIC test (NCCLS broth microdilution). The data set is classed as cell-based, Bacillus. substilis. How it is done: as §1, §2

Regarding `CC[C@H](C)[C@H](NC(=O)[C@H](Cc1c[nH]c2ccccc12)NC(=O)[C@H](CCCCN)NC(=O)[C@@H](NC(=O)[C@H](Cc1c[nH]c2ccccc12)NC(=O)[C@@H](N)CCCCN)[C@@H](C)CC)C(N)=O` [Pac-305 L, K W I K W I] (H-KWIKWI-NH2; N-terminus and C-terminus assumed), in the data set on human red blood cells, the “% lysis at 5 μg/ml” value is recorded as 0.74%, the “% lysis at 50 μg/ml” value is given as 7.2% and the “% lysis at 500 μg/ml” value is on record as 15%.
The corresponding values for `CC[C@H](C)[C@H](NC(=O)[C@H](Cc1c[nH]c2ccccc12)NC(=O)[C@H](CCCNC(=N)N)NC(=O)[C@H](CCCNC(=N)N)NC(=O)[C@H](Cc1c[nH]c2ccccc12)NC(=O)[C@@H](N)CCCCN)C(N)=O` [Pac 301 L, K W R R W I] (H-KWRRWI-NH2; N-terminus and C-terminus assumed) are 0.85%, 6.8% and 14%.
Turning to `CC[C@H](C)[C@H](NC(=O)[C@H](Cc1c[nH]c2ccccc12)NC(=O)[C@H](CCCNC(=N)N)NC(=O)[C@@H](NC(=O)[C@H](Cc1c[nH]c2ccccc12)NC(=O)[C@H](CCCNC(=N)N)NC(=O)[C@H](CCCNC(=N)N)NC(=O)[C@H](Cc1c[nH]c2ccccc12)NC(=O)[C@@H](N)CCCCN)C(C)C)C(N)=O` [Pac-525 L, K W R R W V R W I] (H-KWRRWVRWI-NH2; N-terminus and C-terminus assumed), in the data set with human red blood cells, the “% lysis at 5 μg/ml” value is 0.81%, the “% lysis at 50 μg/ml” value was determined as 7.2% and the “% lysis at 500 μg/ml” value is on record as 14%. Moreover, in the data set on human red blood cells (human RBC, in words), the “hemolysis against RBC compared with other antimicrobial peptides” value is “substantially less hemolytic”.
Broadly, the MIC is the lowest concentration that inhibits growth of the organism. Low readings indicate greater potency, high ones weaker potency. On to `CC[C@H](C)[C@H](NC(=O)[C@H](Cc1ccccc1)NC(=O)[C@H](CCCNC(=N)N)NC(=O)[C@@H](NC(=O)[C@H](Cc1ccccc1)NC(=O)[C@H](CCCNC(=N)N)NC(=O)[C@H](CCCNC(=N)N)NC(=O)[C@H](Cc1ccccc1)NC(=O)[C@@H](N)CCCCN)C(C)C)C(N)=O` [Pac-527 L, K F R R F V R F I] (H-KFRRFVRFI-NH2; N-terminus assumed), for which the MIC was found to be 4 µg/mL (≈ 3.16 µM) with B. pumilus (1X Phosphate Buffer); 2 µg/mL (≈ 1.58 µM) in the data set with B. pumilus (Non Phosphate Buffer); 8 µg/mL (≈ 6.31 µM) in the data set on P. aeruginosa (1X Phosphate Buffer); 4 µg/mL (≈ 3.16 µM) against P. aeruginosa (Non Phosphate Buffer); 8 µg/mL (≈ 6.31 µM) against E. coli (1X Phosphate Buffer); 4 µg/mL (≈ 3.16 µM) in the data set with E. coli (Non Phosphate Buffer). The MIC in the data set on B. cereus (1X Phosphate Buffer) was determined as 4 µg/mL (≈ 3.16 µM); in the data set on B. cereus (Non Phosphate Buffer) it was 4 µg/mL (≈ 3.16 µM); against S. aureus (1X Phosphate Buffer) it was 4 µg/mL (≈ 3.16 µM); in the data set with S. aureus (Non Phosphate Buffer), 4 µg/mL (≈ 3.16 µM); against S. epidermidis (1X Phosphate Buffer) it was 4 µg/mL (≈ 3.16 µM); in the data set with S. epidermidis (Non Phosphate Buffer), 2 µg/mL (≈ 1.58 µM). Moreover, the results for the MIC in the data set on B. substiis (1X Phosphate Buffer) and in the data set with B. substiis (Non Phosphate Buffer) were 2 µg/mL (≈ 1.58 µM) and 4 µg/mL (≈ 3.16 µM), respectively.
